From patent US9120771B2, “Azetidine derivative and antidepressant composition including the same” (KOREA INSTITUTE OF SCIENCE AND TECHNOLOGY, priority 2011, dated 2015)
Counter-ions that a name gives are not always drawn. Like-named read-outs stand apart in the source and are kept apart here.

Assays:
[1] = molecular target: human norepinephrine transporter (Homo sapiens (Human), UniProt P23975); test: hNET binding assay ([3H]Nisoxetine); details: for inhibition at 10 µM: read-out: hNET binding assay %-inhibition (10 uM)
Experimental: NE transporter binding assay for evaluating binding of the compound to the norepinephrine transporter was carried out using human recombinant norepinephrine transporter membrane (PerkinElmer Life and Analytical Sciences, USA) expressed in MDCK cells and radioisotope [^3H]Nisoxetine (PerkinElmer).
That is, the test drug, 6 nM [^3H]Nisoxetine, norepinephrine transporter membrane (11 ug/well), 120 mM NaCl and 50 mM Tris-HCl buffer (pH 7.4) containing 5 mM KCl were added to obtain a reaction mixture with a final volume of 0.25 ml. After incubation for 60 minutes at 4° C., the mixture was quickly passed through a Filtermat A glass fiber filter pre-soaked with 0.5% (w/v) PEI (polyethyleneimine) using Inotech Harvester (Inotech) to terminate the reaction. After washing with cold washing buffer (50 mM Tris-HCl, pH 7.4, 0.9% NaCl) solution, the filter was covered with MeltiLex and sealed in a sample bag. After drying in an oven, radioactivity was counted using MicroBeta Plus (Wallac).
Non-specific binding was measured in the presence of 1 uM desipramine. The IC50 value of the test drug was calculated from non-linear regression analysis (GraphPad Prism Program, San Diego, USA) of each %-inhibition value obtained from the drug with concentrations of 7th and 8th steps.

[2] = molecular target: human dopamine transporter (Homo sapiens (Human), UniProt Q01959); test: hDAT binding assay ([3H]WIN35,428); details: for inhibition at 10 µM: read-out: hDAT binding assay %-inhibition (10 uM); for IC50: membrane from CHO-K1 cells, 8 nM [3H]WIN35,428;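 for all read-outs here: displacement of the radioligand from the transporter membranes, incubated 120 min at 4 °C in Tris-HCl buffer with NaCl, pH 7.4, measured by filter-bound radioactivity counting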
[3] = molecular target: human serotonin transporter (Homo sapiens (Human), UniProt P31645); test: hSERT binding assay ([3H]Imipramine); details: for inhibition at 10 µM: read-out: hSERT binding assay %-inhibition (10 uM);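 for all read-outs here: displacement of radiolabeled imipramine from the transporter, incubated 30 min at 27 °C in Tris-HCl pH 7.4 with NaCl and KCl, bound radioactivity counted after filtration, nonspecific binding defined with 200 uM imipramine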
[4] = 10 uM, membrane from MDCK cells
[5] = 10 uM, membrane from HEK293 cells
[6] = membrane from HEK293 cells, 2 nM [3H]Imipramine
[7] = membrane from MDCK cells, 6 nM [3H]Nisoxetine

Sequence of human dopamine transporter (Q01959 whole entry): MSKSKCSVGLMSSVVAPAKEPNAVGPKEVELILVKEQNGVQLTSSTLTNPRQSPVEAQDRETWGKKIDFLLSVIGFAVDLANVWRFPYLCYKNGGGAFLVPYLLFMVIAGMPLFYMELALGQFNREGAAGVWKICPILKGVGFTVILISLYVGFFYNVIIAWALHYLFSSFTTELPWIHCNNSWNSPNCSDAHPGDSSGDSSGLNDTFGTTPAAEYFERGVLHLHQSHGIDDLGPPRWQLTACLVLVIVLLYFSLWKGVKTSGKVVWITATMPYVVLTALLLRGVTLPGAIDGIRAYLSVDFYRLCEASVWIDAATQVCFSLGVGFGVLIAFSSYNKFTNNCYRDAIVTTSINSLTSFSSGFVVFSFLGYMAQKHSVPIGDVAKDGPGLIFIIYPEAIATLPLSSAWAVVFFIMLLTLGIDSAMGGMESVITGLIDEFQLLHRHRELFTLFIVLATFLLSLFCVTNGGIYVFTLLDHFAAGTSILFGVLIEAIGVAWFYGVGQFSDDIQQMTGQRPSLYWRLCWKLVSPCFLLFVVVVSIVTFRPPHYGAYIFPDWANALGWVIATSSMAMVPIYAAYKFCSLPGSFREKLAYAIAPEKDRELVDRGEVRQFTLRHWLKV
Sequence of human norepinephrine transporter (P23975 whole entry): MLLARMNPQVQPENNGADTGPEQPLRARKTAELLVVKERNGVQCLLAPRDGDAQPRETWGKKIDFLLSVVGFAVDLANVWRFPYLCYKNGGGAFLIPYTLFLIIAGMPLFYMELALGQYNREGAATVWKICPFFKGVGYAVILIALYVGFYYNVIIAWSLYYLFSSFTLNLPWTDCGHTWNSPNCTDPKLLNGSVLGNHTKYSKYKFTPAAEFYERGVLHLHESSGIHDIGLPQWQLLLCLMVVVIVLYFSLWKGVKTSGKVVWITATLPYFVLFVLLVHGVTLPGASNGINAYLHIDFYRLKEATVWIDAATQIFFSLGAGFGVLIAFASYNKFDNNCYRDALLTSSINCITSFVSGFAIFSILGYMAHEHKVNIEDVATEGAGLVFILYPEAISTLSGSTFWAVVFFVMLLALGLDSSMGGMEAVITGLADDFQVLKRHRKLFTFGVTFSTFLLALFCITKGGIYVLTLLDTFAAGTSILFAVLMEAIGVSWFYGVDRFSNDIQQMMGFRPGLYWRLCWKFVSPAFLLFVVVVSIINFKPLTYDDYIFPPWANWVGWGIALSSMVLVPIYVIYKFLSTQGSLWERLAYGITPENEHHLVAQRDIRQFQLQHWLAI
Sequence of human serotonin transporter (P31645 whole entry): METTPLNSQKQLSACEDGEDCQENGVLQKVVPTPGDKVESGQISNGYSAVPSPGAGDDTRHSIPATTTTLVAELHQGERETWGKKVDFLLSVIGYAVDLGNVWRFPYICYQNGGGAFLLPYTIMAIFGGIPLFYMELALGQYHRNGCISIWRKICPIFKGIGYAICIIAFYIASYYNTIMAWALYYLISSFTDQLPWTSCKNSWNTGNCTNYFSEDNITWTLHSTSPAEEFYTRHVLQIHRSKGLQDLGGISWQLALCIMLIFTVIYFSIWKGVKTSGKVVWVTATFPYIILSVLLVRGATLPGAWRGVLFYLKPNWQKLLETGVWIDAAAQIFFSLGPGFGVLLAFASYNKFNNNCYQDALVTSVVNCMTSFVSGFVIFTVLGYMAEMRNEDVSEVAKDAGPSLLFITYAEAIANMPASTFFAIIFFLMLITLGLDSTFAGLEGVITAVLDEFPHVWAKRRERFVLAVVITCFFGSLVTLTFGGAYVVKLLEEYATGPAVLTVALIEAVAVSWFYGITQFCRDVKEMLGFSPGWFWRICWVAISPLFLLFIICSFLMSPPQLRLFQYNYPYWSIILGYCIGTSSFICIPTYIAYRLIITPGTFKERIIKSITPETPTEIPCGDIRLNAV

SMILES | melting point [°C] | also measured
Cl.OC(c1ccccc1)C1CNC1 (stereo not shown) | 223 | –
COC(c1ccccc1)C1CNC1.Cl (stereo not shown) | 228 | –
CCOC(c1ccccc1)C1CNC1.Cl (stereo not shown) | 205 | –
CCCOC(c1ccc(Cl)c(Cl)c1)C1CNC1.Cl (stereo not shown) | 151 | –
Cl.Fc1ccccc1OC(c1ccc(Cl)c(Cl)c1)C1CNC1 (stereo not shown) | 224 | –
Cl.Fc1cccc(OC(c2ccc(Cl)c(Cl)c2)C2CNC2)c1 (stereo not shown) | 218 | –
Cl.Fc1ccc(OC(c2ccc(Cl)c(Cl)c2)C2CNC2)cc1 (stereo not shown) | 210 | –
Cl.Clc1ccc(C(Oc2ccccc2Cl)C2CNC2)cc1Cl (stereo not shown) | 197 | –
Cl.Clc1cccc(OC(c2ccc(Cl)c(Cl)c2)C2CNC2)c1 (stereo not shown) | 169 | –
Cl.Clc1ccc(OC(c2ccc(Cl)c(Cl)c2)C2CNC2)cc1 (stereo not shown) | 201 | –
Cl.FC(F)(F)Oc1ccccc1OC(c1ccc(Cl)c(Cl)c1)C1CNC1 (stereo not shown) | 225 | –
Cl.FC(F)(F)Oc1cccc(OC(c2ccc(Cl)c(Cl)c2)C2CNC2)c1 (stereo not shown) | 208 | –
Cl.FC(F)(F)Oc1ccc(OC(c2ccc(Cl)c(Cl)c2)C2CNC2)cc1 (stereo not shown) | 217 | –
Cl.Fc1ccc(OC(c2ccc(Cl)c(Cl)c2)C2CNC2)cc1F (stereo not shown) | 240 | –
Cl.Clc1ccc(OC(c2ccc(Cl)c(Cl)c2)C2CNC2)cc1Cl (stereo not shown) | 208 | –
CCOC(c1ccc2ccccc2c1)C1CNC1.Cl (stereo not shown) | 205 | –
CCCOC(c1ccc2ccccc2c1)C1CNC1.Cl (stereo not shown) | 223 | –
Cl.c1ccc(OC(c2ccc3ccccc3c2)C2CNC2)cc1 (stereo not shown) | 218 | –
Cl.Fc1ccccc1OC(c1ccc2ccccc2c1)C1CNC1 (stereo not shown) | 211 | –
Cl.Fc1cccc(OC(c2ccc3ccccc3c2)C2CNC2)c1 (stereo not shown) | 216 | –
Cl.Fc1ccc(OC(c2ccc3ccccc3c2)C2CNC2)cc1 (stereo not shown) | 214 | –
Cc1ccccc1OC(c1ccc2ccccc2c1)C1CNC1.Cl (stereo not shown) | 213 | –
Cc1cccc(OC(c2ccc3ccccc3c2)C2CNC2)c1.Cl (stereo not shown) | 210 | –
Cc1ccc(OC(c2ccc3ccccc3c2)C2CNC2)cc1.Cl (stereo not shown) | 203 | –
Cl.Clc1ccccc1OC(c1ccc2ccccc2c1)C1CNC1 (stereo not shown) | 207 | –
Cl.Clc1cccc(OC(c2ccc3ccccc3c2)C2CNC2)c1 (stereo not shown) | 214 | –

SMILES | melting point [°C] | also measured
Cl.Clc1ccc(OC(c2ccc3ccccc3c2)C2CNC2)cc1 (stereo not shown) | 211 | –
Cl.FC(F)(F)Oc1ccccc1OC(c1ccc2ccccc2c1)C1CNC1 (stereo not shown) | 228 | –
Cl.FC(F)(F)Oc1cccc(OC(c2ccc3ccccc3c2)C2CNC2)c1 (stereo not shown) | 217 | –
Cl.FC(F)(F)Oc1ccc(OC(c2ccc3ccccc3c2)C2CNC2)cc1 (stereo not shown) | 209 | –
Cl.Fc1ccc(OC(c2ccc3ccccc3c2)C2CNC2)cc1F (stereo not shown) | 212 | –
Cl.Clc1ccc(OC(c2ccc3ccccc3c2)C2CNC2)cc1Cl (stereo not shown) | 217 | –
CCOC(c1ccc(Cl)c(F)c1)C1CNC1.Cl (stereo not shown) | 215 | –
Cl.Fc1cc(C(Oc2ccccc2)C2CNC2)ccc1Cl (stereo not shown) | 201 | –
Cl.Fc1cc(C(Oc2ccccc2F)C2CNC2)ccc1Cl (stereo not shown) | 198 | –
Cl.Fc1cccc(OC(c2ccc(Cl)c(F)c2)C2CNC2)c1 (stereo not shown) | 217 | –
Cl.Fc1ccc(OC(c2ccc(Cl)c(F)c2)C2CNC2)cc1 (stereo not shown) | 218 | –
Cc1ccccc1OC(c1ccc(Cl)c(F)c1)C1CNC1.Cl (stereo not shown) | 205 | –
Cc1cccc(OC(c2ccc(Cl)c(F)c2)C2CNC2)c1.Cl (stereo not shown) | 203 | –
Cc1ccc(OC(c2ccc(Cl)c(F)c2)C2CNC2)cc1.Cl (stereo not shown) | 173 | –
Cl.Fc1cc(C(Oc2ccccc2Cl)C2CNC2)ccc1Cl (stereo not shown) | 220 | –
Cl.Fc1cc(C(Oc2cccc(Cl)c2)C2CNC2)ccc1Cl (stereo not shown) | 204 | –
Cl.Fc1cc(C(Oc2ccc(Cl)cc2)C2CNC2)ccc1Cl (stereo not shown) | 203 | –
Cl.Fc1cc(C(Oc2ccccc2OC(F)(F)F)C2CNC2)ccc1Cl (stereo not shown) | 166 | –
Cl.Fc1cc(C(Oc2cccc(OC(F)(F)F)c2)C2CNC2)ccc1Cl (stereo not shown) | 145 | –
Cl.Fc1cc(C(Oc2ccc(OC(F)(F)F)cc2)C2CNC2)ccc1Cl (stereo not shown) | 151 | –
Cl.Fc1ccc(OC(c2ccc(Cl)c(F)c2)C2CNC2)cc1F (stereo not shown) | 216 | –
Cl.Fc1cc(C(Oc2ccc(Cl)c(Cl)c2)C2CNC2)ccc1Cl (stereo not shown) | 192 | –
Cl.Fc1cc(C(OCc2ccccc2)C2CNC2)ccc1Cl (stereo not shown) | 191 | –
Cl.Fc1ccc(C(Oc2ccccc2)C2CNC2)cc1Cl (stereo not shown) | 208 | –
Cl.Fc1ccc(C(Oc2ccccc2F)C2CNC2)cc1Cl (stereo not shown) | 194 | –
Cl.Fc1cccc(OC(c2ccc(F)c(Cl)c2)C2CNC2)c1 (stereo not shown) | 209 | –

SMILES | melting point [°C] | also measured
Cl.Fc1ccc(OC(c2ccc(F)c(Cl)c2)C2CNC2)cc1 (stereo not shown) | 211 | –
Cl.Fc1ccc(C(Oc2ccccc2Cl)C2CNC2)cc1Cl (stereo not shown) | 188 | –
Cl.Fc1ccc(C(Oc2cccc(Cl)c2)C2CNC2)cc1Cl (stereo not shown) | 205 | –
Cl.Fc1ccc(C(Oc2ccc(Cl)cc2)C2CNC2)cc1Cl (stereo not shown) | 218 | –
Cc1ccccc1OC(c1ccc(F)c(Cl)c1)C1CNC1.Cl (stereo not shown) | 209 | –
Cc1cccc(OC(c2ccc(F)c(Cl)c2)C2CNC2)c1.Cl (stereo not shown) | 151 | –
Cc1ccc(OC(c2ccc(F)c(Cl)c2)C2CNC2)cc1.Cl (stereo not shown) | 183 | –
Cl.Fc1ccc(C(Oc2ccccc2OC(F)(F)F)C2CNC2)cc1Cl (stereo not shown) | 157 | –
Cl.Fc1ccc(C(Oc2cccc(OC(F)(F)F)c2)C2CNC2)cc1Cl (stereo not shown) | 157 | –
Cl.Fc1ccc(OC(c2ccc(F)c(Cl)c2)C2CNC2)cc1F (stereo not shown) | 187 | –
Cl.Fc1ccc(C(Oc2ccc(Cl)c(Cl)c2)C2CNC2)cc1Cl (stereo not shown) | 186 | –
CCCOC(c1ccc(F)c(F)c1)C1CNC1.Cl (stereo not shown) | 116 | –
Cl.Fc1ccc(C(Oc2ccccc2F)C2CNC2)cc1F (stereo not shown) | 187 | –
Cl.Fc1ccc(OC(c2ccc(F)c(F)c2)C2CNC2)cc1 (stereo not shown) | 188 | –
Cl.Fc1ccc(C(Oc2ccccc2Cl)C2CNC2)cc1F (stereo not shown) | 174 | –
Cl.Fc1ccc(C(Oc2cccc(Cl)c2)C2CNC2)cc1F (stereo not shown) | 152 | –
Cc1ccccc1OC(c1ccc(F)c(F)c1)C1CNC1.Cl (stereo not shown) | 151 | –
Cc1cccc(OC(c2ccc(F)c(F)c2)C2CNC2)c1.Cl (stereo not shown) | 189 | –
Cc1ccc(OC(c2ccc(F)c(F)c2)C2CNC2)cc1.Cl (stereo not shown) | 159 | –
Cl.c1ccc(C(Oc2ccc3ccccc3c2)C2CNC2)cc1 (stereo not shown) | 183 | –
Clc1ccc(C(Oc2ccccc2)C2CNC2)cc1Cl (stereo not shown) (as salt: hydrochloride) [KHG26767, 3-((3,4-dichlorophenyl)(phenoxy)methyl)azetidine hydrochloride] | 175 | –
COC(c1ccc(Cl)cc1)C1CNC1.Cl (stereo not shown) [KHG26753, 3-((4-chlorophenyl)(methoxy)methyl)azetidine hydrochloride] | 281 | inhibition at 10 µM [1, 4]: 52%; inhibition at 10 µM [2]: 58%; inhibition at 10 µM [3, 5]: 95%; IC50 [3, 6]: 42.9 nM
CCOC(c1ccc(Cl)cc1)C1CNC1.Cl (stereo not shown) [KHG26754, 3-((4-chlorophenyl)(ethoxy)methyl)azetidine hydrochloride] | 190 | inhibition at 10 µM [1, 4]: 91%; IC50 [1, 7]: 666 nM; IC50 [2]: 1950 nM; inhibition at 10 µM [2]: 76%; inhibition at 10 µM [3, 5]: 95%; IC50 [3, 6]: 120 nM
COC(c1ccc(Cl)c(Cl)c1)C1CNC1.Cl (stereo not shown) [KHG26756, 3-((3,4-dichlorophenyl)(methoxy)methyl)azetidine hydrochloride] | 109 | inhibition at 10 µM [1, 4]: 85%; IC50 [1, 7]: 339 nM; inhibition at 10 µM [2]: 54%; inhibition at 10 µM [3, 5]: 79%; IC50 [3, 6]: 271 nM
CCOC(c1ccc(Cl)c(Cl)c1)C1CNC1.Cl (stereo not shown) [KHG26757, 3-((3,4-dichlorophenyl)(ethoxy)methyl)azetidine hydrochloride] | 156 | IC50 [1]: 153 nM; inhibition at 10 µM [1]: 86%; inhibition at 10 µM [2]: 58%; IC50 [3]: 97.5 nM; inhibition at 10 µM [3]: 83%
Cl.O=C(OC(c1ccccc1)C1CNC1)c1ccccc1 (stereo not shown) [KHG26771, azetidine-3-yl(phenyl)methyl benzoate hydrochloride] | 215 | inhibition at 10 µM [1, 4]: 54%; IC50 [2]: 1680 nM; inhibition at 10 µM [2]: 77%; IC50 [3]: 402 nM; inhibition at 10 µM [3]: 92%
